Experimental data taken from publication PMC2652713, “Molecular Blocking of CD23 Supports Its Role in the Pathogenesis of Arthritis” (PLoS ONE, 2009).

Legend:
[1] = test system: human CD23; assay: Flow cytometry, inhibition of anti-CD23-FITC McAb binding to human macrophages; details: human PBL-derived CD23+ macrophages, p30A 10 µg/ml pre-incubation, anti-CD23-FITC 20 µg/ml
Description: Figure 1 Specific blockade of CD23 reactivity by p30A. Flow cytometry analysis showing the inhibition of (A) anti-CD23-FITC (20 µg/ml) or (B) IgE (10 µg/ml)/anti-IgE-FITC (1 µg/ml) binding to CD23^+ human PBL-derived macrophages (red lines) or following their pre-incubation with p30A peptides (10 µg/ml) (blue lines). (C) CD23 western blot was performed on total protein extract from à CD23^+ B-cell line. The detection with CD23-McAb followed the pre-incubation of the blot with or without p30A (10 µg/ml). Similar protein quantity (50 µg) was used for each western blot condition.

[2] = test system: adjuvant-induced arthritis in rats; assay: Histopathologic analysis of AIA lesions; assay type: in vivo, rat, Female Lewis; details: 50 days after AIA induction
Description: Figure 6 Inhibition of in vitro and in vivo inflammatory responses in rats by p30A peptide. (A) Rat peritoneal macrophages were activated via CD23 antigens with/without p30A, L-NIL or pCtl. Cell supernatants were collected 48 h later and nitrite levels were quantified. Values are mean±s.d. of cells from 3 different rats. (B) Cumulative clinical score/rat obtained following 50 days post-immunization in all groups. AIA rats were treated either after or before (d0) the onset of symptoms. Treatment consisted of p30A, hydrocortisone (HC, 30 mg/rat)) or pCtl (100 mg/rat). Shown are means of cumulative score/rat±s.d. from 5 (HC) or 8 rats (other conditions). […]
Adjuvant arthritis was induced in six week-old animals by subcutaneous injection at the base of the tail of 300 µl containing 1.8 mg of inactivated Mycobacterium butyricum (Difco Laboratories, Detroit, MI) diluted in emulsion of 8 ml Vaseline, 1 ml polysorbate 80, and 1 ml PBS (Phosphate Buffer Saline, Eurobio). […] The severity of AIA in each paw was quantified daily using an ordinal clinical score measurement from 0 to 4 as follows: no signs of inflammation ( = 0); swelling alone (>2 fold paw diameter) ( = 1) or swelling/immobility ( = 2) of one paw; swelling ( = 3) or swelling/immobility ( = 4) of two paws. Weight evolution of rats was measured daily. […]

In the case of FHENWPS [p30A], the “inhibition of FITC-conjugated anti-CD23 McAb binding” value [1] was “inhibits the binding of FITC-conjugated anti-CD23 McAb” and the “components of AIA arthritic lesions (pannus formation and synovium inflammation, joint/bone deformity, bone remodeling and destruction, bone neoformation, cartilage destruction)” value [2] was “significantly decreased all components of AIA arthritic lesions”.
